Data taken from the kinase profiling compilation of Christmann-Franck et al. (2016).

Tests used:
Test in all cases: KINOMEscan competition binding
Conditions in all cases: compound 10.0 µM; call rule not given here
[1] = target: ACVR1B (human) (UniProt P36896)
[2] = target: ADCK3 (human) (UniProt Q8NI60)
[3] = target: AKT3 (human) (UniProt Q9Y243)
[4] = target: CAMK1G (human) (UniProt Q96NX5)
[5] = target: CAMK2B (human) (UniProt Q13554)
[6] = target: CDC42BPA (human) (UniProt Q5VT25)
[7] = target: CLK3 (human) (UniProt P49761)
[8] = target: CLK4 (human) (UniProt Q9HAZ1)
[9] = target: DMPK (human) (UniProt Q09013)
[10] = target: EGFR (human) (UniProt P00533)
[11] = target: EPHA6 (human) (UniProt Q9UF33)
[12] = target: EPHB4 (human) (UniProt P54760)
[13] = target: ERBB4 (human) (UniProt Q15303)
[14] = target: FGFR4 (human) (UniProt P22455)
[15] = target: INSRR (human) (UniProt P14616)
[16] = target: LIMK1 (human) (UniProt P53667)
[17] = target: MAPK11 (human) (UniProt Q15759)
[18] = target: MAPK9 (human) (UniProt P45984)
[19] = target: MARK1 (human) (UniProt Q9P0L2)
[20] = target: MUSK (human) (UniProt O15146)
[21] = target: NEK9 (human) (UniProt Q8TD19)
[22] = target: NTRK1 (human) (UniProt P04629)
[23] = target: PAK1 (human) (UniProt Q13153)
[24] = target: PAK2 (human) (UniProt Q13177)
[25] = target: PAK3 (human) (UniProt O75914)
[26] = target: PAK4 (human) (UniProt O96013)
[27] = target: PAK7 (human) (UniProt Q9P286)
[28] = target: PIM1 (human) (UniProt P11309)
[29] = target: PRKCH (human) (UniProt P24723)
[30] = target: PTK2 (human) (UniProt Q05397)
[31] = target: PTK2B (human) (UniProt Q14289)
[32] = target: PTK6 (human) (UniProt Q13882)
[33] = target: ROS1 (human) (UniProt P08922)
[34] = target: RPS6KA1 KD1 (human) (UniProt Q15418)
[35] = target: RPS6KA5 KD1 (human) (UniProt O75582)
[36] = target: RPS6KA6 KD1 (human) (UniProt Q9UK32)
[37] = target: STK32B (human) (UniProt Q9NY57)
[38] = target: TGFBR1 (human) (UniProt P36897)
[39] = target: TLK2 (human) (UniProt Q86UE8)
[40] = target: TYRO3 (human) (UniProt Q06418)

Sequence of AKT3 (human) (Q9Y243 whole entry, looked up): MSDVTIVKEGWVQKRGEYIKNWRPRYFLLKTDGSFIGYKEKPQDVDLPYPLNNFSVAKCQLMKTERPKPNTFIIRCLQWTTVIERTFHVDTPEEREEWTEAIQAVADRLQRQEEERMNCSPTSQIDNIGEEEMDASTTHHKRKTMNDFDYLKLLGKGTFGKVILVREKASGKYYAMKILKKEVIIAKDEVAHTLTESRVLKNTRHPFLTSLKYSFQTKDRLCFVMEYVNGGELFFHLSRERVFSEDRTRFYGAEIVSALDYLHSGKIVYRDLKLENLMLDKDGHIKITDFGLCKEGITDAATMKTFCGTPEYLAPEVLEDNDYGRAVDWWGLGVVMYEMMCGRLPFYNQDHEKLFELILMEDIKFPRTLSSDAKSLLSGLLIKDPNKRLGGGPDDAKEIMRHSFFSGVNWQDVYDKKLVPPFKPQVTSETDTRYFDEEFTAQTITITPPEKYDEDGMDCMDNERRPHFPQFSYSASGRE
Sequence of MARK1 (human) (Q9P0L2 whole entry, looked up): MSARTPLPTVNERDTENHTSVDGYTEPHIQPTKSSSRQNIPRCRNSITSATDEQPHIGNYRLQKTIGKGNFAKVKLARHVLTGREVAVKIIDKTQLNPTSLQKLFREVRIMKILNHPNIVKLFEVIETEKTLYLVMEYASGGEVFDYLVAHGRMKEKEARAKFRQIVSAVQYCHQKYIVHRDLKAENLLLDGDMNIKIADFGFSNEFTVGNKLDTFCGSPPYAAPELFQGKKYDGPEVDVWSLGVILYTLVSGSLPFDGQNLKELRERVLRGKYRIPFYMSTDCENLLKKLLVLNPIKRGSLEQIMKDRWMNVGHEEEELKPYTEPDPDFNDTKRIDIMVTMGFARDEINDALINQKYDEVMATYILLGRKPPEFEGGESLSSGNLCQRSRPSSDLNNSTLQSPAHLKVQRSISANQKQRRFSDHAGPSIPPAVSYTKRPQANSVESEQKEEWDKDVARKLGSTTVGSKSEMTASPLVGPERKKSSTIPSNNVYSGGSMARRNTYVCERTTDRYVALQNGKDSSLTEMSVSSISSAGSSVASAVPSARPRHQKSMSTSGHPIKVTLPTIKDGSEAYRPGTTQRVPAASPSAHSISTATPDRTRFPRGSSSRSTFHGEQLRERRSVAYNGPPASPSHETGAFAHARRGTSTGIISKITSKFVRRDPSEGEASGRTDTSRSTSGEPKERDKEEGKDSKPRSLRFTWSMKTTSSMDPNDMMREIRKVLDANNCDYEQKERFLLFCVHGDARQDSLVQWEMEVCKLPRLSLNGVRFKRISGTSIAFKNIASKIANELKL
Sequence of NEK9 (human) (Q8TD19 whole entry, looked up): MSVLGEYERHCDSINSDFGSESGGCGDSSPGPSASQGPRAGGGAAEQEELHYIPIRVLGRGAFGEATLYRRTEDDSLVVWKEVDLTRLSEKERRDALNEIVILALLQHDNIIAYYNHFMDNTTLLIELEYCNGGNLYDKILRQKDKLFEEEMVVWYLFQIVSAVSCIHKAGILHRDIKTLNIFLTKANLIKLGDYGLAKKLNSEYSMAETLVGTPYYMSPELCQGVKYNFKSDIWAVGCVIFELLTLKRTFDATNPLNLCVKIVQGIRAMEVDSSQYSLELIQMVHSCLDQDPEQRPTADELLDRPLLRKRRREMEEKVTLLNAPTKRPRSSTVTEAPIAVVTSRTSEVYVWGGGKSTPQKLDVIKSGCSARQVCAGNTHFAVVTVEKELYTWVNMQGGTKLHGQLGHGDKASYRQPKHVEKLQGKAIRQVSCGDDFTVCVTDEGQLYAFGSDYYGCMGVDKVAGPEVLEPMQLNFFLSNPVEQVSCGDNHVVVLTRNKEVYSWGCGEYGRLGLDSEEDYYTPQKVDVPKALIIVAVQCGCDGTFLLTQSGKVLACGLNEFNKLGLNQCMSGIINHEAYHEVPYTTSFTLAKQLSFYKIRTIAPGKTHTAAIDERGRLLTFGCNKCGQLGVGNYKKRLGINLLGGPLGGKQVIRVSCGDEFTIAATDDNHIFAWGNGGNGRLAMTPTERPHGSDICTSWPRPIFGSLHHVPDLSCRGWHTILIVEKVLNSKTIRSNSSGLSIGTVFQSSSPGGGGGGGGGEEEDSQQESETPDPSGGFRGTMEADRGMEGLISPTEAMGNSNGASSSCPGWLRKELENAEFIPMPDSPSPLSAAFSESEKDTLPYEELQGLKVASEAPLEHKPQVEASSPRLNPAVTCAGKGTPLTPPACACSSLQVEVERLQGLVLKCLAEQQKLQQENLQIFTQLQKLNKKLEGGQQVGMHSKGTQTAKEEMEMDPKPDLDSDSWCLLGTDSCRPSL
Sequence of PAK7 (human) (Q9P286 whole entry, looked up): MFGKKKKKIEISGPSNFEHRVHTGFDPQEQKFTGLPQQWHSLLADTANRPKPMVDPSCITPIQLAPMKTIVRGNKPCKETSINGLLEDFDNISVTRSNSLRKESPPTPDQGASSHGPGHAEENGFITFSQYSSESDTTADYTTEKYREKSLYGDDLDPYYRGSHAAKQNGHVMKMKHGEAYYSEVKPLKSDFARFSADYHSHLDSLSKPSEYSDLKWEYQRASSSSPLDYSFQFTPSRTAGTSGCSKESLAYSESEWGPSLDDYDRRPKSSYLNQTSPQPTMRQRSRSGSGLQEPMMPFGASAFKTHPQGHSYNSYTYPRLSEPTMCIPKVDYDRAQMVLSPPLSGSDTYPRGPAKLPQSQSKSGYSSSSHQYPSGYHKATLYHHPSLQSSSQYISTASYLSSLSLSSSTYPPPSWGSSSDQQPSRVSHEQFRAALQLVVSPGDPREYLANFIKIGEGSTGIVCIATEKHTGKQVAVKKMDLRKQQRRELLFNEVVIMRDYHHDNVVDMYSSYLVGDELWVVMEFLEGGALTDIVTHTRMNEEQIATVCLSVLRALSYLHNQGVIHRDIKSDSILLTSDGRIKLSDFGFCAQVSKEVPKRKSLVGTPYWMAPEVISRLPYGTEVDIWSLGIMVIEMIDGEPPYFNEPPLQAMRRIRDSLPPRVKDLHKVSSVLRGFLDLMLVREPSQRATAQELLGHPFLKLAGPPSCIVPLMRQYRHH
Sequence of MUSK (human) (O15146 whole entry, looked up): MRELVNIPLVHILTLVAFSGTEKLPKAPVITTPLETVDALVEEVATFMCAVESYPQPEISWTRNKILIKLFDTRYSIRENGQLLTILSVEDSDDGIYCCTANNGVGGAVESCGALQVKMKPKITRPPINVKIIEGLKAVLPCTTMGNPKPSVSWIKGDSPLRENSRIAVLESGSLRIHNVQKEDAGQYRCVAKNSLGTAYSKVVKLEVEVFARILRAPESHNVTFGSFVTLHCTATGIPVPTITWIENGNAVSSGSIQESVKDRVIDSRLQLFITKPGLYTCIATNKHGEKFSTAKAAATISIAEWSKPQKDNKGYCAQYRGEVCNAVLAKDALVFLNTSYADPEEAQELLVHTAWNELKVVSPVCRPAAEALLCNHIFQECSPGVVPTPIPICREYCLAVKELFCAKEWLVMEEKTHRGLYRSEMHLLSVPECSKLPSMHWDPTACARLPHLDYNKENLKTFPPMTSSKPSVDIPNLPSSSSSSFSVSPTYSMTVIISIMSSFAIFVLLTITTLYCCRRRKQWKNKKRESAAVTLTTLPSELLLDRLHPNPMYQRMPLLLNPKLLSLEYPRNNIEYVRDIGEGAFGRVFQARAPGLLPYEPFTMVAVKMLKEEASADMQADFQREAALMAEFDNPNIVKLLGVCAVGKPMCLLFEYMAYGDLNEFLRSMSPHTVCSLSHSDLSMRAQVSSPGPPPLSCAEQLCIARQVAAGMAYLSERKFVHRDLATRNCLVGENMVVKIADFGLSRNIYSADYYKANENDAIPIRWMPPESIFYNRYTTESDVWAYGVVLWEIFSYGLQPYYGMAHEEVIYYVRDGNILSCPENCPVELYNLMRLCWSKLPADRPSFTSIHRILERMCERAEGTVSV
Sequence of RPS6KA5 KD1 (human) (O75582 whole entry, looked up): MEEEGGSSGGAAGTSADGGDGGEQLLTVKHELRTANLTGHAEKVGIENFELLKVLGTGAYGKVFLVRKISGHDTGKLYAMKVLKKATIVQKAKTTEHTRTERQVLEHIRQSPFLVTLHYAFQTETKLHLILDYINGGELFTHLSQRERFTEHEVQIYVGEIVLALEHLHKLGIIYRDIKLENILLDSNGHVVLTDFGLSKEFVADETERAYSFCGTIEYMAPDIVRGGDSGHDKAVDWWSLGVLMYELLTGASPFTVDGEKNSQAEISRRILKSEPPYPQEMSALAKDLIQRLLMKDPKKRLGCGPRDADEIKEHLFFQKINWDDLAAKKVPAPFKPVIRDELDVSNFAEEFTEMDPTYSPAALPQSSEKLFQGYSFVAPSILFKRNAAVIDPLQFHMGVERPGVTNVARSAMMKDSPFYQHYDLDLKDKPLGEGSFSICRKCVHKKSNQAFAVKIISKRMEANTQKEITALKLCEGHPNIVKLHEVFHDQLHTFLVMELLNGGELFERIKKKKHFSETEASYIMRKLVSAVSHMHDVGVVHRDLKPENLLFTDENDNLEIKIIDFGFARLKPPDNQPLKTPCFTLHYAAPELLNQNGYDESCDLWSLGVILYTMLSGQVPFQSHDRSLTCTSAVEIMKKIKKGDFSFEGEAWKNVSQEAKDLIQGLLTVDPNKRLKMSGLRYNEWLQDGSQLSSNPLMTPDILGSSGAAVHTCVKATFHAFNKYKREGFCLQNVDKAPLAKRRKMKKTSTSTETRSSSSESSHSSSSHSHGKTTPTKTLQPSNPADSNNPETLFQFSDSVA
Sequence of PIM1 (human) (P11309 whole entry, looked up): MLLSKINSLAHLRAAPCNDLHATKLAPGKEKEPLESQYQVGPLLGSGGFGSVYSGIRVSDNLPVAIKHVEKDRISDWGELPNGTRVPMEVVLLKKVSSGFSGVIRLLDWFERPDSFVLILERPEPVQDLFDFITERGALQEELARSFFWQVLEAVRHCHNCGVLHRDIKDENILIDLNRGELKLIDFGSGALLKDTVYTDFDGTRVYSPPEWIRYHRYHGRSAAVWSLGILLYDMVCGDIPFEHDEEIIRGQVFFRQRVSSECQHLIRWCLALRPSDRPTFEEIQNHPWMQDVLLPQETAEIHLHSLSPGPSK

Row | Structure (SMILES) | kinase still bound, per cent of control [1] | kinase still bound, per cent of control [2] | kinase still bound, per cent of control [3] | kinase still bound, per cent of control [4] | kinase still bound, per cent of control [5] | kinase still bound, per cent of control [6] | kinase still bound, per cent of control [7] | kinase still bound, per cent of control [8] | kinase still bound, per cent of control [9] | kinase still bound, per cent of control [10] | kinase still bound, per cent of control [11] | kinase still bound, per cent of control [12] | kinase still bound, per cent of control [13] | kinase still bound, per cent of control [14] | kinase still bound, per cent of control [15] | kinase still bound, per cent of control [16] | kinase still bound, per cent of control [17] | kinase still bound, per cent of control [18] | kinase still bound, per cent of control [19] | kinase still bound, per cent of control [20] | also measured
1 | Cc1ccc(NC(=O)c2cccc(N3CCCCC3)c2)cc1-c1ccc(C(=O)NCC2CC2)cc1 | no effect (inactive) | no effect (inactive) | no effect (inactive) | no effect (inactive) | no effect (inactive) | no effect (inactive) | no effect (inactive) | no effect (inactive) | no effect (inactive) | no effect (inactive) | no effect (inactive) | no effect (inactive) | no effect (inactive) | no effect (inactive) | no effect (inactive) | no effect (inactive) | 0% | no effect (inactive) | no effect (inactive) | no effect (inactive) | kinase still bound, per cent of control [21]: no effect (inactive); kinase still bound, per cent of control [22]: no effect (inactive); kinase still bound, per cent of control [23]: no effect (inactive); kinase still bound, per cent of control [24]: no effect (inactive); kinase still bound, per cent of control [25]: no effect (inactive); kinase still bound, per cent of control [26]: no effect (inactive); kinase still bound, per cent of control [27]: no effect (inactive); kinase still bound, per cent of control [28]: no effect (inactive); kinase still bound, per cent of control [29]: no effect (inactive); kinase still bound, per cent of control [30]: no effect (inactive); kinase still bound, per cent of control [31]: no effect (inactive); kinase still bound, per cent of control [32]: no effect (inactive); kinase still bound, per cent of control [33]: no effect (inactive); kinase still bound, per cent of control [34]: no effect (inactive); kinase still bound, per cent of control [35]: no effect (inactive); kinase still bound, per cent of control [36]: no effect (inactive); kinase still bound, per cent of control [37]: no effect (inactive); kinase still bound, per cent of control [38]: no effect (inactive); kinase still bound, per cent of control [39]: no effect (inactive); kinase still bound, per cent of control [40]: no effect (inactive)
2 | NC(=O)c1ccc(-c2cc(C(N)=O)c(N)c(-c3ccc(S(N)(=O)=O)cc3)c2)cc1 | no effect (inactive) | no effect (inactive) | no effect (inactive) | no effect (inactive) | no effect (inactive) | no effect (inactive) | no effect (inactive) | no effect (inactive) | no effect (inactive) | no effect (inactive) | no effect (inactive) | no effect (inactive) | no effect (inactive) | no effect (inactive) | no effect (inactive) | no effect (inactive) | no effect (inactive) | no effect (inactive) | no effect (inactive) | no effect (inactive) | kinase still bound, per cent of control [21]: no effect (inactive); kinase still bound, per cent of control [22]: no effect (inactive); kinase still bound, per cent of control [23]: no effect (inactive); kinase still bound, per cent of control [24]: no effect (inactive); kinase still bound, per cent of control [25]: no effect (inactive); kinase still bound, per cent of control [26]: no effect (inactive); kinase still bound, per cent of control [27]: no effect (inactive); kinase still bound, per cent of control [28]: no effect (inactive); kinase still bound, per cent of control [29]: no effect (inactive); kinase still bound, per cent of control [30]: no effect (inactive); kinase still bound, per cent of control [31]: no effect (inactive); kinase still bound, per cent of control [32]: no effect (inactive); kinase still bound, per cent of control [33]: no effect (inactive); kinase still bound, per cent of control [34]: no effect (inactive); kinase still bound, per cent of control [35]: no effect (inactive); kinase still bound, per cent of control [36]: no effect (inactive); kinase still bound, per cent of control [37]: no effect (inactive); kinase still bound, per cent of control [38]: no effect (inactive); kinase still bound, per cent of control [39]: no effect (inactive); kinase still bound, per cent of control [40]: no effect (inactive)
3 | CCS(=O)(=O)Nc1ccc2c(c1)[C@H](/C(=N/c1ccc(CN3CCCCC3)cc1)c1ccccc1)C(=O)N2 | 2% | 27.2% | no effect (inactive) | no effect (inactive) | 4.6% | no effect (inactive) | 2.3% | 0% | no effect (inactive) | 21.2% | 0% | 0.7% | 34.7% | 0% | 0% | no effect (inactive) | no effect (inactive) | 0.1% | 0% | 0% | kinase still bound, per cent of control [21]: no effect (inactive); kinase still bound, per cent of control [22]: 0%; kinase still bound, per cent of control [23]: 4.9%; kinase still bound, per cent of control [24]: no effect (inactive); kinase still bound, per cent of control [25]: 0%; kinase still bound, per cent of control [26]: 0.2%; kinase still bound, per cent of control [27]: 0%; kinase still bound, per cent of control [28]: 12.8%; kinase still bound, per cent of control [29]: 19.2%; kinase still bound, per cent of control [30]: 0%; kinase still bound, per cent of control [31]: 0%; kinase still bound, per cent of control [32]: 1.8%; kinase still bound, per cent of control [33]: 0%; kinase still bound, per cent of control [34]: 0%; kinase still bound, per cent of control [35]: 0%; kinase still bound, per cent of control [36]: 0%; kinase still bound, per cent of control [37]: 15.4%; kinase still bound, per cent of control [38]: 0%; kinase still bound, per cent of control [39]: 1.5%; kinase still bound, per cent of control [40]: 0.2%
